# Literature values as cited in article PMC10323144, “Garbage in, garbage out: how reliable training data improved a virtual screening approach against SARS-CoV-2 MPro” (Frontiers in Pharmacology, 2023).
# Where a name gives a salt, the structure may show the parent alone. Peptide text beside a SMILES is read from it. * marks the point of attachment. Cbz = O=C(OCc1ccccc1)*
# Test system: MPro
# Conditions: compiled from peer-reviewed sources (287 compounds) ref the 18 original articles; cited from earlier work
row,Structure (SMILES),Class (MPro activity class)
1,CC/C(=C(\c1ccccc1)c1ccc(OCCN(C)C)cc1)c1ccccc1 [TAMOXIFEN CITRATE],"0 (compounds with IC50 > 20 μM, percentage inhibition <80% at 20 µM or 50 μM, or percentage enzyme inhibition <50% at 10 µM were labelled as INACTIVE)"
2,CC(C)[C@H](O)C(=O)N[C@@H](C)C(=O)N[C@@H]1C(=O)N(C)CCc2ccccc21 [Semagacestat],"0 (compounds with IC50 > 20 μM, percentage inhibition <80% at 20 µM or 50 μM, or percentage enzyme inhibition <50% at 10 µM were labelled as INACTIVE)"
3,CC#CCn1c(N2CCCC(N)C2)nc2c1c(=O)n(Cc1nc(C)c3ccccc3n1)c(=O)n2C (centres unmarked) [Linafliptin],"0 (compounds with IC50 > 20 μM, percentage inhibition <80% at 20 µM or 50 μM, or percentage enzyme inhibition <50% at 10 µM were labelled as INACTIVE)"
4,CC(C)c1c(C(=O)Nc2ccccc2)c(-c2ccccc2)c(-c2ccc(F)cc2)n1CC[C@@H](O)C[C@@H](O)CC(=O)O [Atorvastatin],"0 (compounds with IC50 > 20 μM, percentage inhibition <80% at 20 µM or 50 μM, or percentage enzyme inhibition <50% at 10 µM were labelled as INACTIVE)"
5,CCCOc1cc(Cl)cc(-c2cc(-c3c[nH]c(=O)[nH]c3=O)cn(-c3cccnc3)c2=O)c1 [compound 11],1 (Compounds with IC50 < 10 µM or with a percentage of enzyme inhibition >50% at 10 µM were labelled as ACTIVE)
6,O=C(Cn1nnc2ccccc21)N(Cc1ccsc1)c1ccc(-c2ccccc2)cc1 [17a],1 (Compounds with IC50 < 10 µM or with a percentage of enzyme inhibition >50% at 10 µM were labelled as ACTIVE)
7,CC(=O)N[C@@H](CC(C)C)C(=O)N[C@@H](CC(C)C)C(=O)N[C@H](C=O)CCCNC(=N)N [Leupeptin],"0 (compounds with IC50 > 20 μM, percentage inhibition <80% at 20 µM or 50 μM, or percentage enzyme inhibition <50% at 10 µM were labelled as INACTIVE)"
8,CC(NC(=O)Cc1cc(F)cc(F)c1)C(=O)NC(C(=O)OC(C)(C)C)c1ccccc1 (centres unmarked) [DAPT (GSI-IX)],"0 (compounds with IC50 > 20 μM, percentage inhibition <80% at 20 µM or 50 μM, or percentage enzyme inhibition <50% at 10 µM were labelled as INACTIVE)"
9,CCOC(=O)c1ccc(OC(=O)CCCCCNC(=N)N)cc1 [Gabexate],"0 (compounds with IC50 > 20 μM, percentage inhibition <80% at 20 µM or 50 μM, or percentage enzyme inhibition <50% at 10 µM were labelled as INACTIVE)"
10,CCCCCOc1cc(Cl)cc(-c2cc(-c3c[nH]c(=O)[nH]c3=O)cn(-c3cccnc3)c2=O)c1 [compound 13],1 (Compounds with IC50 < 10 µM or with a percentage of enzyme inhibition >50% at 10 µM were labelled as ACTIVE)
11,COc1ccc(CN=c2[nH]c(N3CCC[C@H]3CO)ncc2C(=O)NCc2ncccn2)cc1Cl,"0 (compounds with IC50 > 20 μM, percentage inhibition <80% at 20 µM or 50 μM, or percentage enzyme inhibition <50% at 10 µM were labelled as INACTIVE)"
12,O=c1cc(-c2ccc(O)cc2)oc2cc(O)c(O)c(O)c12 [Scutellarein],1 (Compounds with IC50 < 10 µM or with a percentage of enzyme inhibition >50% at 10 µM were labelled as ACTIVE)
13,CC(C)(C)NC(=O)C(c1cccnc1)N(C(=O)c1ccco1)c1ccc(C(C)(C)C)cc1 (centres unmarked) [ALP-POS-c59291d4-6],1 (Compounds with IC50 < 10 µM or with a percentage of enzyme inhibition >50% at 10 µM were labelled as ACTIVE)
14,O=C(CNc1c(-c2ccccc2)nc2ccccn12)NN=Cc1cccc2ccccc12 [LASSBio-1615 (11)],"0 (compounds with IC50 > 20 μM, percentage inhibition <80% at 20 µM or 50 μM, or percentage enzyme inhibition <50% at 10 µM were labelled as INACTIVE)"
15,C=CC(=O)N(c1ccc(C(C)(C)C)cc1)C(C(=O)NCCc1cccc(F)c1)c1cncc(C#N)c1 (centres unmarked) [LON-WEI-babf2c61-3],1 (Compounds with IC50 < 10 µM or with a percentage of enzyme inhibition >50% at 10 µM were labelled as ACTIVE)
16,C[C@H]1C[C@@H]2[C@H]([C@@H](O)C[C@@]3(C)[C@H]2CC[C@]3(O)C(=O)CO)[C@@]2(C)C=CC(=O)C=C12 [methylprednisolone],"0 (compounds with IC50 > 20 μM, percentage inhibition <80% at 20 µM or 50 μM, or percentage enzyme inhibition <50% at 10 µM were labelled as INACTIVE)"
17,O=C(Oc1cncc(Cl)c1)c1cccc2[nH]ccc12 [10_GRL0496],1 (Compounds with IC50 < 10 µM or with a percentage of enzyme inhibition >50% at 10 µM were labelled as ACTIVE)
18,O=C1c2c(O)cc(O)cc2O[C@H](c2cc(O)c(O)c(O)c2)[C@H]1O [Dihydromyricetin],1 (Compounds with IC50 < 10 µM or with a percentage of enzyme inhibition >50% at 10 µM were labelled as ACTIVE)
19,CC(C)CC(NC(=O)OCc1ccccc1)C(=O)NC(CC1CCNC1=O)C(O)S(=O)(=O)O (centres unmarked) [GC-376],1 (Compounds with IC50 < 10 µM or with a percentage of enzyme inhibition >50% at 10 µM were labelled as ACTIVE)
20,CC(=O)ON=C1C(=O)N(Cc2cc(Cl)ccc2Cl)c2ccc(Cl)cc21 [LDN-57444],"0 (compounds with IC50 > 20 μM, percentage inhibition <80% at 20 µM or 50 μM, or percentage enzyme inhibition <50% at 10 µM were labelled as INACTIVE)"
21,O=C(CCl)N1CCN(S(=O)(=O)c2ccsc2)CC1 [MAT-POS-ee51dedd-2],1 (Compounds with IC50 < 10 µM or with a percentage of enzyme inhibition >50% at 10 µM were labelled as ACTIVE)

row,Structure (SMILES),Class (MPro activity class)
1,O=c1cc(-c2ccccc2)oc2cc(O)c(O)c(O)c12 [Baicalein],1 (Compounds with IC50 < 10 µM or with a percentage of enzyme inhibition >50% at 10 µM were labelled as ACTIVE)
2,O=C(O)[C@H]1C2CCC(CC2)[C@@H]1Nc1nc(-c2c[nH]c3ncc(F)cc23)ncc1F [Pimodivir],"0 (compounds with IC50 > 20 μM, percentage inhibition <80% at 20 µM or 50 μM, or percentage enzyme inhibition <50% at 10 µM were labelled as INACTIVE)"
3,CCCOc1cc(Cl)cc(-c2cc(-c3ccccc3C#N)cn(-c3cncnc3)c2=O)c1 [compound 9],1 (Compounds with IC50 < 10 µM or with a percentage of enzyme inhibition >50% at 10 µM were labelled as ACTIVE)
4,O=C(CCl)N1CCN(S(=O)(=O)C2=CC[SH]=C2)CC1 [MAK-UNK-d4768348-1],1 (Compounds with IC50 < 10 µM or with a percentage of enzyme inhibition >50% at 10 µM were labelled as ACTIVE)
5,CNc1ccc(N(Cc2ccsc2)C(=O)Cn2nnc3ccccc32)cc1 [16j],1 (Compounds with IC50 < 10 µM or with a percentage of enzyme inhibition >50% at 10 µM were labelled as ACTIVE)
6,CC(C)CC(NC(=O)OCc1ccccc1)C(=O)NC(CC(C)C)C(=O)NC(CC1CCNC1=O)C(=O)C(=O)NC1CC1 (centres unmarked) [UAWJ248],1 (Compounds with IC50 < 10 µM or with a percentage of enzyme inhibition >50% at 10 µM were labelled as ACTIVE)
7,Cc1cc(C)c(C)c(S(=O)(=O)N2CCN(C(=O)c3cc(=O)[nH]c4ccccc34)CC2)c1C [MAT-POS-916a2c5a-3],1 (Compounds with IC50 < 10 µM or with a percentage of enzyme inhibition >50% at 10 µM were labelled as ACTIVE)
8,O=C(/C=C/c1ccc(O)c(O)c1)O[C@@H]1C[C@](O)(C(=O)O)C[C@@H](O)[C@H]1O [Chlorogenic acid],"0 (compounds with IC50 > 20 μM, percentage inhibition <80% at 20 µM or 50 μM, or percentage enzyme inhibition <50% at 10 µM were labelled as INACTIVE)"
9,C[C@@]1(c2cc(-c3cncnc3)c(F)cc2F)CCSC(N)=N1 [LY2811376],"0 (compounds with IC50 > 20 μM, percentage inhibition <80% at 20 µM or 50 μM, or percentage enzyme inhibition <50% at 10 µM were labelled as INACTIVE)"
10,O=C(Cc1cccc(Cl)c1)Nn1cnc2ccccc21 [JAN-GHE-5a013bed-2],1 (Compounds with IC50 < 10 µM or with a percentage of enzyme inhibition >50% at 10 µM were labelled as ACTIVE)
11,CC(C)CC(NC(=O)OCc1ccccc1)C(=O)NC(C=O)CC1CCNC1=O (centres unmarked) [GC373],1 (Compounds with IC50 < 10 µM or with a percentage of enzyme inhibition >50% at 10 µM were labelled as ACTIVE)
12,CC(C)C[C@@H](C=O)NC(=O)[C@H](CC(C)C)NC(=O)[C@H](CC(C)C)NC(=O)OCc1ccccc1 [MG-132] (Cbz-Leu-Leu-Leu-aldehyde),1 (Compounds with IC50 < 10 µM or with a percentage of enzyme inhibition >50% at 10 µM were labelled as ACTIVE)
13,CC(C)(C#N)c1cc(Cn2cncn2)cc(C(C)(C)C#N)c1 [Anastrozole],"0 (compounds with IC50 > 20 μM, percentage inhibition <80% at 20 µM or 50 μM, or percentage enzyme inhibition <50% at 10 µM were labelled as INACTIVE)"
14,O=C(Nc1ccccc1)Nc1cnc2ccc([N+](=O)[O-])cc2n1 [LASSBio-1962 (8)],"0 (compounds with IC50 > 20 μM, percentage inhibition <80% at 20 µM or 50 μM, or percentage enzyme inhibition <50% at 10 µM were labelled as INACTIVE)"
15,O=C(CCl)N1CCN(C(c2ccccc2)C2CCCCC2)CC1 (centres unmarked) [GIA-UNK-20b63697-6],1 (Compounds with IC50 < 10 µM or with a percentage of enzyme inhibition >50% at 10 µM were labelled as ACTIVE)
16,CC(NC(=O)C(Cc1ccccc1)NC(=O)OCc1ccccc1)C(=O)CF (centres unmarked) [Z-FA-FMK],"0 (compounds with IC50 > 20 μM, percentage inhibition <80% at 20 µM or 50 μM, or percentage enzyme inhibition <50% at 10 µM were labelled as INACTIVE)"
17,COCCc1ccc(Cl)cc1CN1CCN(C(=O)CCl)CC1 [MED-COV-4280ac29-37],1 (Compounds with IC50 < 10 µM or with a percentage of enzyme inhibition >50% at 10 µM were labelled as ACTIVE)
18,CN1C(=O)C(=NNC(=O)c2ccc3c(c2)OCO3)c2ccccc21 [LASSBio-1652 (16)],"0 (compounds with IC50 > 20 μM, percentage inhibition <80% at 20 µM or 50 μM, or percentage enzyme inhibition <50% at 10 µM were labelled as INACTIVE)"
19,N#C[C@@H]1C[C@@H]2C[C@@H]2N1C(=O)[C@@H](N)C12CC3CC(CC(O)(C3)C1)C2 [Saxagliptin],"0 (compounds with IC50 > 20 μM, percentage inhibition <80% at 20 µM or 50 μM, or percentage enzyme inhibition <50% at 10 µM were labelled as INACTIVE)"
20,Cc1nnc(C(=O)NC(C)(C)c2nc(C(=O)NCc3ccc(F)cc3)c(O)c(=O)n2C)o1 [Raltegravir],"0 (compounds with IC50 > 20 μM, percentage inhibition <80% at 20 µM or 50 μM, or percentage enzyme inhibition <50% at 10 µM were labelled as INACTIVE)"
